Test [1] has as its target Biotinylated KRAS G12C protein (Homo sapiens (Human), UniProt P01116, C118S/C51S/C80L/G12C). As to the kind of experiment: SOS-catalyzed nucleotide exchange assay (TR-FRET). The test is classed as biochemical. Conditions: in vitro apparent potency; preincubation time of 60 minutes prior to addition of SOS. As for the experimental part: The SOS-catalyzed nucleotide exchange assay utilizes a preformed complex of recombinant biotinylated KRAS protein containing G12C/C51S/C80L/C118S mutations (183 amino acids; biotin on K10; leader sequence which is an AviTag; referred to as SEQ ID NO: 1 or “Biotinylated KRAS G12C protein” hereafter), Bodipy-GDP, and Terbium-streptavidin. Compounds are added to this complex and then after incubation for 60 minutes, the mixture is treated with recombinant SOS protein and unlabeled GTP. Small molecule inhibitors stabilize the Bodipy-GDP complex whereas the untreated protein rapidly exchanges Bodipy-GDP for unlabeled GTP resulting in reduced TR-FRET signal.
Biotinylated KRAS G12C protein (SEQ ID NO: 1) is diluted to 2 μM in an EDTA buffer (20 mM HEPES, 150 mM sodium chloride, 10 mM EDTA, and 0.01% Tween) and incubated at room temperature for one hour. This mixture is then further diluted to 90 nM in an assay buffer (20 mM HEPES, 150 mM sodium chloride, 10 mM magnesium chloride, and 0.005% Tween) containing 15 nM of Terbium-Streptavidin (Invitrogen, catalog #PV3577) and 900 nM of Bodipy-GDP and incubated at room temperature for six hours. This solution is referred to as Biotinylated KRAS G12C mixture.
Each test compound (10 mM stock in DMSO) is diluted in DMSO to make a 10-point, 3-fold dilution series in a 384-well low dead volume microplate (Labcyte, catalog #LP-0200). Once titrations are made, 10 nL of the diluted compounds is acoustically dispensed into a 384-well plate (Corning, catalog #3820) using an Echo 550 (Labcyte).
Each well of the plate receives 3 μL Biotinylated KRAS G12C mixture that had been incubating for six hours and 3 μL of assay buffer using a BioRAPTR (Beckman Coulter) and is incubated at room temperature for 60 minutes. Each well then receives 3 μL of 240 nM recombinant human SOS protein and 9 mM GTP (Sigma, G8877) in assay buffer and is incubated at room temperature for 60 minutes.
The time-resolved fluorescence resonance energy transfer signal of the plate is measured on an Envision (PerkinElmer) plate reader: Excitation filter=340 nm; emission1=495 nm; emission2=520 nm; dichroic mirror=D400/D505; delay time=100 μs. The signal of each well is determined as the ratio of the emission at 520 nm to that at 495 nm. Percent effect of each well is determined after normalization to control wells containing DMSO (no effect) or a saturating concentration of inhibitor (max effect). The apparent effect as a function of compound concentration is fit to a four parameter logistic equation.

Another test relates to phospho-ERK. Nature of the test: Cellular phospho-ERK assay. The test is classed as cell-based. Particulars: NCI-H358 cells, 2 hour incubation, ratio of p-Erk vs total Erk, read-out: IC50 (nM) pERK (Cell). The method, then: NCI-H358 cells (ATCC® CRL-5807™) were cultured in T150 flask in growth medium (RPMI medium 1640-GlutaMAX™-I (ThermoFisher Scientific 61870) containing 10% fetal bovine serum (ThermoFisher Scientific 10091148)). The cells were harvested in growth medium after TrypLE (ThermoFisher scientific 12604021) digestion and were seeded in a 384-well collagen coated cell culture plate (Corning 356702) at a density of 15,000 cells/well, and incubated at 37° C., 5% CO2 overnight. The compound dose-response titrations were prepared and appropriate amounts of compounds were dispensed in a 384-well intermediate plate using an Echo 550 liquid handler. RPMI medium 1640-GlutaMAX™-I were added to the intermediate plate and transferred to 384-well cell culture plate, which was incubated at 37° C., 5% CO2 for 2 hours. After removal of medium from the plate, cells were lysed in lysis buffer from Alpha SureFire® Ultra™ Multiplex p-Erk and total Erk assay kit (PerkinElmer MPSU-PTERK) containing Halt™ Protease and Phosphotase inhibitor cocktail (ThermoFisher Scientific 78446) at room temperature with constant shaking at 300 rpm for 30 minutes. The cell lysates were then transferred to OptiPlate-384 plate (PerkinElmer 6005620) and the phosphorylation of Erk and total Erk levels were detected by Alpha SureFire Ultra Multiplex p-Erk kit (PerkinElmer MPSU-PTERK) following the manufacturer's protocol. Assay plates were read on an EnVision Multimode Plate Reader (PerkinElmer), and the ratio of p-Erk vs total Erk in each well was used as the final readout. Dose response curves were analyzed using a 4-parameter logistic model to calculate IC50 values using spotfire software.

Like-named read-outs stand apart in the source and are kept apart here.

For the compound “17,20-difluoro-2-[(2S)-2-methyl-4-(prop-2-enoyl)piperazin-1-yl]-6-(propan-2-yl)-10,11,12,13-tetrahydro-4H-1,18-ethenopyrido[4,3-e]pyrimido[1,6-g][1,7,9]benzotriazacyclododecin-4-one [Example 112]”, the IC50 was 23 nM in test [1] and 26 nM with phospho-ERK.

For “17,20-difluoro-6-(propan-2-yl)-2-[4-(prop- 2-enoyl)-2-(2,2,2-trifluoroethyl)piperazin- 1-yl]-11,12-dihydro-4H,10H-1,18- (ethanediylidene)pyrido[4,3- e]pyrimido[1,6-g][1,7,9] benzoxadiazacyclododecin-4-one [Example 101]”, the IC50 was 29 nM in test [1] and 137 nM in the test on phospho-ERK.

Turning to “17,20-difluoro-12-hydroxy-2-[(2S)-2-methyl-4-(prop-2-enoyl)piperazin-1-yl]-6-(propan-2-yl)-10,11,12,13-tetrahydro-4H-1,18-ethenopyrido[3,4-e]pyrimido[6,1-c][2,4]benzodiazacyclododecin-4-one [Example 118-1]”, the concentration for half-maximal inhibition (IC50) turned out to be 192 nM in test [1] and 651 nM in the test on phospho-ERK.

For `C=CC(=O)N1C[C@H](C)N(c2nc(=O)n3c4nc(c(Cl)cc24)-c2c(F)cccc2OCCc2ccnc(C(C)C)c2-3)C[C@H]1C` (atropisomer, axis not shown) [Example 119, 19-chloro-2-[(2S,5R)-2,5-dimethyl-4-(prop-2-enoyl)piperazin-1-yl]-16-fluoro-6-(propan-2-yl)-10,11-dihydro-4H-1,17-ethenopyrido[4,3-d]pyrimido[1,6-f][1,6,8]benzoxadiazacycloundecin-4-one], the results for the IC50 (in test [1]; with phospho-ERK) were 2.6 nM and 5.1 nM, respectively.

Regarding `C=CC(=O)N1CCN(c2nc(=O)n3c4nc(c(F)cc24)-c2cccnc2OCCCOc2ccnc(C(C)C)c2-3)[C@@H](C)C1` (single isomer, unassigned) [Example 2a], the IC50 in test [1] came to 2680 nM; with phospho-ERK (Homo sapiens, NCI-H358, 2 h) it was 13900 nM.

As to `C=CC(=O)N1CCN(c2nc(=O)n3c4nc(c(F)cc24)-c2c(F)cccc2OCCCCc2ccnc(C(C)C)c2-3)[C@@H](C)C1` (single isomer, unassigned) [Example 4a], the IC50 in test [1] was found to be 2.4 nM; in the test on phospho-ERK, 1.5 nM.

With `C=CC(=O)N1CCN(c2nc(=O)n3c4nc(c(F)cc24)-c2c(F)cccc2OCCCc2ccnc(C(C)C)c2-3)[C@@H](C)C1` (single isomer, unassigned) [Example 10a], the IC50 in test [1] is 4.3 nM; in the test on phospho-ERK, 6.7 nM.

Regarding `C=CC(=O)N1CCN(c2nc(=O)n3c4nc(c(F)cc24)-c2c(F)cccc2OCCCc2ccnc(C(C)C)c2-3)[C@@H](C)C1` (single isomer, unassigned) [Example 10b], the IC50 amounted to 2590 nM in test [1] and 4380 nM in the test with phospho-ERK.

For `C=CC(=O)N1CCN(c2nc(=O)n3c4nc(c(F)cc24)-c2c(F)cccc2OCCCc2ccnc(C(C)C)c2-3)C[C@@H]1CC#N` (single isomer, unassigned) [Example 11a], the IC50 was determined as 19 nM in test [1] and 395 nM with phospho-ERK (Homo sapiens, NCI-H358, 2 h).

In the case of `C=CC(=O)N1CCN(c2nc(=O)n3c4nc(c(F)cc24)-c2c(F)cccc2OCCOc2ccnc(C(C)C)c2-3)[C@@H](C)C1` (single isomer, unassigned) [Example 12a], the IC50 in test [1] came to 3.9 nM; in the test on phospho-ERK (Homo sapiens, NCI-H358, 2 h), 6.9 nM.

For the compound `C=CC(=O)N1C[C@H](C)N(c2nc(=O)n3c4nc(c(F)cc24)-c2c(F)cccc2OCC(F)(F)COc2ccnc(C(C)C)c2-3)C[C@H]1C` (single isomer, unassigned) [Example 13a], the IC50 in test [1] amounted to 7.2 nM; with phospho-ERK, 27 nM.

Take `C=CC(=O)N1C[C@H](C)N(c2nc(=O)n3c4nc(c(F)cc24)-c2c(F)cccc2OCC(F)(F)COc2ccnc(C(C)C)c2-3)C[C@H]1C` (single isomer, unassigned) [Example 13b]: the figures for the IC50 (in test [1]; in the test with phospho-ERK) were 8530 nM and 22100 nM, respectively.

`C=CC(=O)N1C[C@H](C)N(c2nc(=O)n3c4nc(c(F)cc24)-c2c(F)cccc2OCCOc2ccnc(C(C)C)c2-3)C[C@H]1C` (single isomer, unassigned) [Example 15a]: the IC50 in test [1] was 6.5 nM; in the test with phospho-ERK (Homo sapiens, NCI-H358, 2 h), 11 nM.

Consider `C=CC(=O)N1CCN(c2nc(=O)n3c4nc(c(F)cc24)-c2c(F)cccc2OCCCCc2cnc(C(C)C)c-3c2)[C@@H](C)C1` (single isomer, unassigned) [Example 16a], for which the half-inhibitory concentration (IC50) in test [1] amounted to 9.8 nM; in the test with phospho-ERK, 79 nM.

For `C=CC(=O)N1CCN(c2nc(=O)n3c4nc(c(F)cc24)-c2c(F)cccc2C(=O)NCCCc2ccnc(C(C)C)c2-3)[C@@H](C)C1` (single isomer, unassigned) [Example 19a], the figures for the IC50 (in test [1]; in the test on phospho-ERK) were 6.8 nM and 117 nM, respectively.

On to `C=CC(=O)N1CCN(c2nc(=O)n3c4nc(c(F)cc24)-c2c(F)cccc2CCCOc2ccnc(C(C)C)c2-3)[C@@H](C)C1` (single isomer, unassigned) [Example 20a], for which the IC50 was found to be 12 nM in test [1] and 30 nM with phospho-ERK.

Consider `C=CC(=O)N1CCN(c2nc(=O)n3c4nc(c(F)cc24)-c2c(F)cccc2CCCOc2ccnc(C(C)C)c2-3)[C@@H](C)C1` (single isomer, unassigned) [Example 20b], for which the IC50 in test [1] came to 1380 nM; with phospho-ERK it was 4760 nM.

For the compound `C=CC(=O)N1C[C@H](C)N(c2nc(=O)n3c4nc(c(F)cc24)-c2c(F)cccc2OC(C)CCc2ccnc(C(C)C)c2-3)C[C@H]1C` (single isomer, unassigned) [Example 81], the IC50 in test [1] turned out to be 2.9 nM; with phospho-ERK (Homo sapiens, NCI-H358, 2 h) it was 21 nM.

As for `C=CC(=O)N1C[C@H](C)N(c2nc(=O)n3c4nc(c(F)cc24)-c2c(F)cccc2OCCCCc2cnc(C(C)C)c-3c2C)C[C@H]1C` (single isomer, unassigned) [Example 89], the values for the IC50 (in test [1]; in the test on phospho-ERK) were 71 nM and 4160 nM, respectively.

As for `C=CC(=O)N1C[C@H](C)N(c2nc(=O)n3c4nc(c(F)cc24)-c2c(ccc(F)c2F)OCCC(C)c2ccnc(C(C)C)c2-3)C[C@H]1C` (single isomer, unassigned) [Example 91], the IC50 in test [1] is 113 nM; in the test with phospho-ERK (Homo sapiens, NCI-H358, 2 h), 410 nM.

On to `C=CC(=O)N1CCN(c2nc(=O)n3c4nc(c(F)cc24)-c2cccc4cnn(c24)CCCc2ccnc(C(C)C)c2-3)[C@@H](C)C1` (single isomer, unassigned) [Example 117], for which the IC50 in test [1] was 17 nM; with phospho-ERK it was 44 nM.

Take `C=CC(=O)N1C[C@H](C)N(c2nc(=O)n3c4nc(c(C)cc24)-c2c(F)ccc(F)c2OCCCc2ccnc(C(C)C)c2-3)C[C@H]1C` (single isomer, unassigned) [Example 120]: the IC50 amounted to 4.3 nM in test [1] and 11 nM in the test on phospho-ERK.

In general, IC50 refers to the concentration at which inhibition is half-maximal.
